In BindingDB's records for doi:10.1021/jm400638v (The University of Queensland, 2013):
Where a SMILES comes first, the peptide text is derived from it. The star is where a group is joined. Palmitoyl = CCCCCCCCCCCCCCCC(=O)*

Test: Agonist activity at […] in human platelets by platelet aggregation assay in presence of SFLLRN

## CCCCCCCCCCCCCCCC(=O)N[C@@H](CCCN=C(N)N)C(=O)N[C@@H](CS)C(=O)N[C@@H](CC(C)C)C(=O)N[C@@H](CO)C(=O)N[C@@H](CO)C(=O)N[C@@H](CO)C(=O)N[C@@H](C)C(=O)N[C@H](C(=O)N[C@@H](C)C(=O)N[C@@H](CC(N)=O)C(=O)N[C@@H](CCCN=C(N)N)C(=O)N[C@@H](CO)C(=O)N[C@@H](CCCCN)C(=O)N[C@@H](CCCCN)C(=O)N[C@@H](CO)C(=O)N[C@@H](CCCN=C(N)N)C(=O)N[C@@H](CC(C)C)C(=O)N[C@@H](Cc1ccccc1)C(=O)O)C(C)C (Palmitoyl-RCLSSSAVANRSKKSRLF-OH)
  EC50: 8 µM
